In patent US6372799B1, “Non-sedating diphenhydramine metabolites” (Bridge Pharma, Inc., priority 1998, dated 2002):

Tested on: physostigmine-induced lethality in mice
Assay: Sedative effects in vivo, physostigmine-induced lethality test
Settings: result in words, figures not given
Method: The physostigmine-induced lethality test is being used in the present studies. This test is a modification of the sedation test technique reported by VILLANI et al., in U.S. Pat. No. 4,659,716. In short, physostigmine (1.9 mg/kg s.c.) produces 90-100% lethality when given to grouped mice with 10 animals in each plastic cage (approx. 11×26×13 cm). Mice administered a sedating agent, such as for example a sedative antihistamine prior to physostigmine are protected and survive. In the present study, test compounds are administered orally 60 minutes prior to physostigmine. The number of survivors is counted 30 minutes after physostigmine administration.

CN(C)CCOC(c1ccccc1)c1ccccc1 [diphenhydramine, DIPHENHYDRAMINE]
sedative activity / sedative side effects: profound sedative side effects
